The subject of this assay is BDF1 mice, P388 leukemia ip, median survival T/C. The assay can be described thus: NCI In Vivo Anticancer Drug Screen. Data for tumor model P388 Leukemia (intraperitoneal) in B6D2F1 (BDF1) mice. Conditions: endpoint: median survival time, higher = longer survival. The procedure, abridged: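 Reported as T/C, where T is the survival measurement in dosed animals and C the same measurement in vehicle controls.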

The mark [1] stands for this setting: dose: 100.0 mg/kg/injection, schedule: Q01DX009 (ip), vehicle: Klucel (hydroxypropylcellulose) (HPC).
The mark [2] stands for this setting: dose: 100.0 mg/kg/injection, schedule: Q04DX003 (ip), vehicle: Klucel (hydroxypropylcellulose) (HPC).
Where [3] appears, read: dose: 200.0 mg/kg/injection, schedule: Q01DX009 (ip), vehicle: Klucel (hydroxypropylcellulose) (HPC).
Setting [4] is: dose: 200.0 mg/kg/injection, schedule: Q04DX003 (ip), vehicle: Klucel (hydroxypropylcellulose) (HPC).
Setting [5] is: dose: 400.0 mg/kg/injection, schedule: Q01DX009 (ip), vehicle: Klucel (hydroxypropylcellulose) (HPC).
The mark [6] stands for this setting: dose: 400.0 mg/kg/injection, schedule: Q04DX003 (ip), vehicle: Klucel (hydroxypropylcellulose) (HPC).

“And” between values parts separate entries of the source, which are not always exact repeats. Equal entries are not always repeated. Inconclusive results and toxic doses are left out.

For `COc1cccc2c1C(=O)c1c(O)c3c(c(O)c1C2=O)C[C@@](O)(/C(CO)=N/NC(=O)c1ccccc1)C[C@@H]3OC1CC(N)C(O)C(C)O1` (some centres not stated), the T/C (dose: 3.12 mg/kg/injection, schedule: Q01DX009 (ip), vehicle: water) is 180 % of control; the T/C (dose: 6.25 mg/kg/injection, schedule: Q01DX009 (ip), vehicle: water) is 252 % of control; the T/C (dose: 12.5 mg/kg/injection, schedule: Q01DX009 (ip), vehicle: water) was 267 % of control.

In the case of `O=CC1(C(O)C2SCCCS2)SCCCS1` (configuration not stated), the T/C is 95 % of control (dose: 12.5 mg/kg/injection, schedule: Q01DX001 (ip), vehicle: other); 104 % of control (dose: 25.0 mg/kg/injection, schedule: Q01DX001 (ip), vehicle: other); 109 % of control (dose: 50.0 mg/kg/injection, schedule: Q01DX001 (ip), vehicle: other).

Take `CN(C)c1ccc(C2OC3(CCCCC3)C[N+]23CCCC3)cc1` (configuration not stated): the T/C is, setting by setting: (dose: 18.0 mg/kg/injection, schedule: Q01DX009 (ip), vehicle: saline) 110 % of control; (dose: 25.0 mg/kg/injection, schedule: Q04DX003 (ip), vehicle: saline) 95 % of control; (dose: 28.0 mg/kg/injection, schedule: Q01DX009 (ip), vehicle: saline) 105 % of control; (dose: 40.0 mg/kg/injection, schedule: Q01DX009 (ip), vehicle: saline) 94 % of control; (dose: 50.0 mg/kg/injection, schedule: Q04DX003 (ip), vehicle: saline) 100 % of control; (dose: 75.0 mg/kg/injection, schedule: Q01DX001 (ip), vehicle: Klucel (hydroxypropylcellulose) (HPC)) 104 % of control. Further, the T/C (dose: 100.0 mg/kg/injection, schedule: Q04DX003 (ip), vehicle: saline) is 90 % of control and the T/C (dose: 150.0 mg/kg/injection, schedule: Q01DX001 (ip), vehicle: Klucel (hydroxypropylcellulose) (HPC)) was 100 % of control.

As for `CC1(C)SC(C)(C)N(C=O)C1C(=O)O` (configuration not stated), the T/C runs as follows: under setting [1], 90 % of control; under setting [2], 91 % of control; under setting [3], 109 % of control; under setting [4], 95 % of control; under setting [5], 90 % of control; under setting [6], 91 % of control.

Regarding `N=[N+]=CC(=O)CCC(NC(=O)C(CCC(=O)C=[N+]=N)NC(=O)CCC(N)C(=O)O)C(=O)O` (configuration not stated), the T/C is 88 % of control (dose: 0.1 mg/kg/injection, schedule: Q01DX009 (ip), vehicle: Klucel (hydroxypropylcellulose) (HPC)); 92 % of control (dose: 0.2 mg/kg/injection, schedule: Q01DX009 (ip), vehicle: Klucel (hydroxypropylcellulose) (HPC)); 163 % of control (dose: 0.2 mg/kg/injection, schedule: Q01DX009 (ip), vehicle: water); 170 % of control (dose: 0.2 mg/kg/injection, schedule: Q01DX010 (ip), vehicle: other); 109 % of control (dose: 0.3 mg/kg/injection, schedule: Q01DX009 (ip), vehicle: water); 94 % of control (dose: 0.4 mg/kg/injection, schedule: Q01DX009 (ip), vehicle: Klucel (hydroxypropylcellulose) (HPC)). Also, the T/C is 150 % of control (dose: 0.4 mg/kg/injection, schedule: Q01DX009 (ip), vehicle: water); 210 % of control (dose: 0.4 mg/kg/injection, schedule: Q01DX010 (ip), vehicle: other); 172 % of control (dose: 0.4 mg/kg/injection, schedule: Q01DX010 (ip), vehicle: water); 86 % of control (dose: 0.5 mg/kg/injection, schedule: Q01DX009 (ip), vehicle: water); 90 % of control (dose: 0.6 mg/kg/injection, schedule: Q01DX009 (ip), vehicle: water); 120 % of control (dose: 0.6 mg/kg/injection, schedule: Q01DX010 (ip), vehicle: other). Also, the T/C runs as follows: (dose: 0.6 mg/kg/injection, schedule: Q01DX010 (ip), vehicle: water) 109 % of control and 110 % of control; (dose: 0.8 mg/kg/injection, schedule: Q01DX009 (ip), vehicle: Klucel (hydroxypropylcellulose) (HPC)) 102 % of control; (dose: 0.8 mg/kg/injection, schedule: Q01DX010 (ip), vehicle: other) 110 % of control; (dose: 0.8 mg/kg/injection, schedule: Q01DX010 (ip), vehicle: water) 100 % of control; (dose: 1.0 mg/kg/injection, schedule: Q01DX010 (ip), vehicle: water) 90 % of control; (dose: 1.6 mg/kg/injection, schedule: Q01DX009 (ip), vehicle: Klucel (hydroxypropylcellulose) (HPC)) 97 % of control. Also, the T/C (dose: 2.5 mg/kg/injection, schedule: Q02DX005 (oral), vehicle: other) is 163 % of control; the T/C (dose: 5.0 mg/kg/injection, schedule: Q02DX005 (oral), vehicle: other) is 159 % of control; the T/C (dose: 7.5 mg/kg/injection, schedule: Q04DX003 (ip), vehicle: water) is 154 % of control; the T/C (dose: 10.0 mg/kg/injection, schedule: Q02DX005 (oral), vehicle: other) is 177 % of control; the T/C (dose: 12.5 mg/kg/injection, schedule: Q04DX003 (oral), vehicle: water) is 172 % of control; the T/C (dose: 15.0 mg/kg/injection, schedule: Q02DX005 (oral), vehicle: other) was 209 % of control. Moreover, the T/C runs as follows: (dose: 15.0 mg/kg/injection, schedule: Q04DX003 (ip), vehicle: water) 200 % of control; (dose: 20.0 mg/kg/injection, schedule: Q02DX005 (oral), vehicle: other) 195 % of control; (dose: 25.0 mg/kg/injection, schedule: Q04DX003 (oral), vehicle: water) 200 % of control; (dose: 30.0 mg/kg/injection, schedule: Q04DX003 (ip), vehicle: water) 218 % of control; (dose: 50.0 mg/kg/injection, schedule: Q04DX003 (oral), vehicle: water) 222 % of control; (dose: 100.0 mg/kg/injection, schedule: Q04DX003 (oral), vehicle: water) 104 % of control.

As for `CC1(C)C=C(C(Br)c2cccc(Cl)c2)C(=O)c2ccccc21` (configuration not stated), the T/C is 105 % of control under setting [1]; 104 % of control under setting [2]; 120 % of control under setting [3]; 104 % of control under setting [4]; 100 % of control under setting [5]; 95 % of control under setting [6].

Take `CCOC(=O)NC(C)(C)CN(C(=O)OCC)c1ccccc1`: the T/C by setting is: (dose: 44.0 mg/kg/injection, schedule: Q04DX003 (ip), vehicle: saline with Tween-80) 95 % of control; (dose: 66.0 mg/kg/injection, schedule: Q04DX003 (ip), vehicle: saline with Tween-80) 104 % of control; (dose: 100.0 mg/kg/injection, schedule: Q04DX003 (ip), vehicle: saline with Tween-80) 90 % of control; (dose: 150.0 mg/kg/injection, schedule: Q04DX003 (ip), vehicle: saline with Tween-80) 95 % of control.

As to `O=C(Nc1cc(Cl)c(NC(=O)c2ccccc2)c(Cl)c1)c1ccccc1`, the T/C was 100 % of control (dose: 12.5 mg/kg/injection, schedule: Q01DX001 (ip), vehicle: saline with Tween-80); 90 % of control and 95 % of control (dose: 25.0 mg/kg/injection, schedule: Q01DX001 (ip), vehicle: saline with Tween-80); 90 % of control (dose: 50.0 mg/kg/injection, schedule: Q01DX001 (ip), vehicle: saline with Tween-80); 95 % of control (dose: 100.0 mg/kg/injection, schedule: Q01DX001 (ip), vehicle: saline with Tween-80).

In the case of `COc1cccc(CCCC(=O)O)c1`, the T/C was 95 % of control under setting [4] and 87 % of control under setting [6].

For `CC(C)C(=O)OCC1OC(n2cnc3c(=S)nc[nH]c32)C(OC(=O)C(C)C)C1OC(=O)C(C)C` (configuration not stated), the T/C is, setting by setting: (dose: 88.0 mg/kg/injection, schedule: Q01DX009 (ip), vehicle: saline with Tween-80) 104 % of control; (dose: 100.0 mg/kg/injection, schedule: Q01DX009 (ip), vehicle: saline with Tween-80) 118 % of control; (dose: 133.0 mg/kg/injection, schedule: Q01DX009 (ip), vehicle: saline with Tween-80) 95 % of control; (dose: 200.0 mg/kg/injection, schedule: Q01DX009 (ip), vehicle: saline with Tween-80) 100 % of control; (dose: 300.0 mg/kg/injection, schedule: Q01DX009 (ip), vehicle: saline with Tween-80) 100 % of control; (dose: 400.0 mg/kg/injection, schedule: Q01DX009 (ip), vehicle: saline with Tween-80) 100 % of control.

The values above are taken from PubChem BioAssay AID328 (DTP/NCI, 2004).
